According to patent US10471076B2, “Compositions and methods to treat vision disorders” (YouHealth Biotech, Limited, priority 2014, dated 2019):
Entries after “also recorded” stand apart in the source; their conditions may differ.

Tests used:
[1] = biological target: T1, LSS (Rattus norvegicus, UniProt P48450); details: cited from earlier work
T1 sequence (P48450 1-733): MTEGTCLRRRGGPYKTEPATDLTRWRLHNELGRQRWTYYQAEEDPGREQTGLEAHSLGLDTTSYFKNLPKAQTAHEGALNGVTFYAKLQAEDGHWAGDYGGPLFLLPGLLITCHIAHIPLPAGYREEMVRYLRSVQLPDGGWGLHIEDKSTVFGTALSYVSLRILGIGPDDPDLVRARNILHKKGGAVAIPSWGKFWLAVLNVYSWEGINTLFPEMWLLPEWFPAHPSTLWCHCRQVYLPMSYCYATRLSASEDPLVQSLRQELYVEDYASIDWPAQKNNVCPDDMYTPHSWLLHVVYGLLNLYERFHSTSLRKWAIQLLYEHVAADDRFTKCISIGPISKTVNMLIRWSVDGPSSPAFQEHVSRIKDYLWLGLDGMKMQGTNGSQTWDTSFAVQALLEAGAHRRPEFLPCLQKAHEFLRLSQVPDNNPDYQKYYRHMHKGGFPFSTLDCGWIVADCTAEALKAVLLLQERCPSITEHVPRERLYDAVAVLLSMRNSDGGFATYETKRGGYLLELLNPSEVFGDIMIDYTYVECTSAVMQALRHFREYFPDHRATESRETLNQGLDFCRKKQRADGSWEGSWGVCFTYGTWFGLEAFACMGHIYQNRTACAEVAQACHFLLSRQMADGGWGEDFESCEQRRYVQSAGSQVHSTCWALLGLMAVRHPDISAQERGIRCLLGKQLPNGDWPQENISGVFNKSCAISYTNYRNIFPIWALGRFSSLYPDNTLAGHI

[2] = system: cataract-causing mutant crystallin proteins; test: Intracellular aggregation of mutant crystallins in HeLa cells; type: cell-based, human; details: HeLa cells co-transfected with LSS and crystallin mutant; 40 μM sterols 2 h, then 12 h; lanosterol P<1×10^−4, cholesterol P>0.1
Experimental: (§1) FIG. 9A, FIG. 9B, and FIG. 9C show inhibition of crystallin mutant aggregation by wild-type LSS and lanosterol in HLEB-3 cells (FIG. 9A) or HeLa cells (FIG. 9B). Cells co-transfected with LSS and crystallin mutant constructs were cultured for 24 h before assaying for aggregates. The rescue experiments were performed by addition of 40 […] μM sterols (lanosterol or cholesterol) to the cell culture medium for 2 h, the sterol medium was then replaced with fresh culture medium and the cells were cultured for a further 12 h. The percentage of cells with crystallin aggregates were calculated from ten randomly selected viewing fields. The values of the wild-type LSS group, mutant group, or mutant plus lanosterol group were calculated. […] After transfection for 4 h and incubation in fresh culture medium for another 24 h, the cells were lysed and centrifuged to separate supernatant and insoluble fractions. LSS and crystallin fusion proteins were detected by antibodies against Flag and GFP, respectively. Red arrows indicate higher crystalline content in the soluble fraction versus in the insoluble fraction in cells containing the WT-LSS.
(§2) Cells were transfected with various crystallin constructs for 4 h and cultured for an additional 24 h in fresh culture medium. Then the cells were treated with 10, 20 and 40 μM lanosterol in 1% (HLEB-3 cells) or 2% DMSO (HeLa cells) for 2 h and cultured for another 12 h. Cells treated with 1% (HLEB-3 cells) or 2% DMSO (HeLa cells) were used as the controls. Formation of intracellular aggregates of various crystallin proteins was visualized by fluorescence of GFP (green) and the nuclei were stained with Hoechst 33342 (blue). Typical intracellular aggregates are indicated by arrows.
(§3) The impact of LSS and lanosterol on intracellular crystallin aggregation were evaluated in single-blinded observer studies. Experiments have been repeated at least three times. P values were calculated using Student's t-tests. Fluorescence microscopy. […]

[3] = system: cataract-causing mutant crystallin proteins; test: Intracellular aggregation of mutant crystallins in HLEB-3 cells; type: cell-based, human; details: HLEB-3 cells co-transfected with LSS and crystallin mutant; 40 μM sterols 2 h, then 12 h; lanosterol P<1×10^−4, cholesterol P>0.1
Experimental: as §1, §2, §3

[4] = system: cataract-causing mutant crystallin proteins; test: Intracellular aggregation of mutant crystallins in transfected human lens progenitor cells; type: cell-based
Experimental: To assess the effect of lanosterol on crystallin aggregation, human lens progenitor cells were co-transfected with LSS and various crystallin constructs for 4 h. Cells co-transfected with crystallin mutants and pcDNA3.1-N-Flag were used as a control. Human lens progenitor cells co-transfected with LSS and crystallin mutant constructs were cultured for 12 h before assaying for aggregates. The rescue experiments were performed after 16 h by addition of 40 mM sterols (lanosterol or cholesterol, Sigma-Aldrich) to the cell culture medium for 2 h, which was then replaced with fresh culture medium and cells cultured for 24 h. The percentage of cells with crystallin aggregates was calculated from ten randomly selected viewing fields. The values of the wild-type LSS group, mutant group, and mutant plus lanosterol group were calculated. Cells treated with 1% DMSO were used as the controls.
The impact of LSS and lanosterol on intracellular crystallin aggregation were evaluated in single-blinded observer studies. Experiments have been repeated at least three times. P values were calculated using Student's t-tests. Fluorescence microscopy. Equal amounts of the human lens progenitor cells, HLEB-3 cells or HeLa cells were seeded on glass coverslips pretreated with TC (Solarbio). After culturing for 24 h to reach 90% confluency, the cells were transfected with plasmids containing various LSS or crystallin genes or co-transfected with plasmids containing a certain crystallin gene and those containing the wild-type or mutated LSS gene. The controls were cells transfected with the plasmids containing peGFP-N1 and/or peDNA3.1-N-Flag. Both transfection and co-transfection were performed using Lipofectamine 3000 (Invitrogen) according to the instructions from the manufacturer.
The effect of lanosterol or cholesterol on the aggresome formation of various crystallins was studied by transfecting the cells with plasmids containing various crystallin genes. The cells were incubated for 24 h to enable efficient protein expression and aggresome formation. The cells were then treated with 0-40 mM sterols in 1% (for human lens progenitor cells) or 2% DMSO (for HeLa cells). Cells treated with 1% or 2% DMSO were used as the control. After treatment for 2 h, the media was replaced with fresh media. After 12 h, the cells were used for microscopy analysis.
The microscopy samples were prepared by washing the slips with phosphate buffered saline (PBS) three times. The cells were fixed with 4% paraformaldehyde for 40 min followed by another three washes with PBS. The cells were permeabilized with 0.1% Triton X-100 (Sigma) in PBS for 10 min and blocked with 5% normal goat serum in PBS for 1 h at 37° C. […] The mounted cells were analysed using a Carl Zeiss LSM 710 confocal microscope.

[5] = biological target: T2, αA-crystallin (Y118D) aggregates (Homo sapiens, UniProt P02489, Y118D); test: Serial live-cell imaging, single-particle tracking of aggregates; type: cell-based; details: human lens progenitor cells; 40 mM sterol in 1% DMSO for 4 h
T2 construct: expressed in transfected cells; host or cells: human lens progenitor cells, G418-selected
T2 sequence (P02489 1-173 Y118D): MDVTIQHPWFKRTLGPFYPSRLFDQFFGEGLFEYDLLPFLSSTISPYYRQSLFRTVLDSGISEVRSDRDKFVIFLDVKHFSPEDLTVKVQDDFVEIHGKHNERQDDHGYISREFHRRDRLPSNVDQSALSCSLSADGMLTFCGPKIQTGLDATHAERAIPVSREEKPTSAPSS
Experimental: Live-cell imaging. Human lens progenitor cells were transfected with plasmids containing αA-crystallin (Y118D) mutant. After a 24 h transfection period, the cells with stable expression of αA-crystallin (Y118D) mutant were screen by incubation in culture medium containing 0.8 mg ml^−1 G418 for 7 days. Then the obtained cells were seeded onto glass bottom cell culture dishes (In Vitro Scientific) and treated with 1% DMSO, 40 mM cholesterol in 1% DMSO or 40 mM lanosterol in 1% DMSO for 4 h. Fresh culture medium was added, and the cells were analysed by serial live-cell imaging. Live-cell images were viewed with an Olympus IX81 microscope and captured with CellSens Dimension soft-ware (Olympus). Quantitative analysis of the size of aggregates was performed by measuring the fluorescence intensity of p62-positive aggregates using single-par-tide tracking in live-cell imaging. The live-cell imaging was conducted using three biological replicates with 1-8 repetitions each.

[6] = system: amyloid-like fibrils of crystallin proteins; test: Re-dissolution of pre-formed amyloid-like fibrils (ThT fluorescence, TEM, turbidity); type: biochemical, human; details: 0.2 mg/ml aggregates; 500 μM sterols in 500 μM DPPC liposome (b129 prints 500 mM), 37° C., 24 h; TEM and ThT fluorescence; concentration-dependent
Experimental: Crystallin aggregates were formed by incubating 5 mg ml^−1 protein solution at 60° C. for 2 h (α-crystallins) or 37° C. for 48 h (β- and γ-crystallins) in the presence of 1 M guanidine chloride. The preformed aggregates were re-suspended in PBS at a final protein concentration of 0.2 mg ml^−1 and were treated with 500 μM sterols in 500 μM DPPC liposome and incubated at 37° C. for 24 h. Aggregates treated with 500 μM DPPC liposome only were used as the controls. […] Aggregates treated with 500 μM DPPC liposome only were used as the controls.
All protein samples were prepared in 20 mM PBS buffer containing 150 mM NaCl, 1 mM EDTA and 1 mM DTT.
Protein aggregation and aggregate dissociation. The aggregates of the wild-type and mutated αA- and αB-crystallin proteins were obtained by heating the protein solutions containing 1 M guanidine chloride (ultrapure, Sigma-Aldrich) at a con-centration of 5 mg/ml at 60° C. for 2 h. The aggregates of the wild-type and mutated b- and c-crystallins were prepared by heating the protein solutions containing 1 M guanidine chloride at 37° C. for 48 h. The formation of aggregates was confirmed by ThT fluorescence, turbidity (absorbance at 400 nm) and transmission electron microscopy (TEM) observations. […] After 24 h of treatment, the protein solutions were used for ThT fluorescence, turbidity and negatively stained TEM observations. […]

CCN(CC)CCO[C@H]1CC[C@@]2(C)C(=CC[C@@H]3[C@@H]2CC[C@]2(C)C(=O)CC[C@@H]32)C1 [U18666A]
cataract formation by inhibition of LSS [1]: cause cataracts

CC(C)CCC[C@@H](C)[C@H]1CC[C@H]2[C@@H]3CC=C4C[C@@H](O)CC[C@]4(C)[C@H]3CC[C@]12C [cholesterol, reference compound]
percentage of cells with crystallin aggregates versus control group (rescue) [2]: showed no difference to the control group | percentage of cells with crystallin aggregates versus control group (rescue) [3]: showed no difference to the control group | intracellular aggregation / aggresome formation of crystallin proteins ([4]; 0-40 mM sterols in 1% DMSO for 2 h, then 12 h, concentration-dependent, n=3, lanosterol P<1×10^−4, cholesterol P>0.1): had no effect; also recorded: did not reduce intracellular aggregation | crystallin aggregation in cells co-expressing an LSS mutant and a mutant crystallin (rescue by sterol) ([4]; 40 mM sterols in culture medium for 2 h, then fresh medium 24 h): but not cholesterol | effect on αA-crystallin (Y118D) aggregates in live cells [5]: did not reduce aggresome formation | re-dissolution of aggregated crystallin proteins from amyloid-like fibrils [6]: but not cholesterol
